The text below walks through data of US8106055B2, “Substituted amide compounds” (Gruenenthal GmbH, priority 2007, dated 2012).

Assay [1] has as its target T1, serotonin (5-HT) reuptake (Rattus norvegicus, UniProt P31652).
T1 construct: synaptosomes are freshly isolated from areas of the rat brain; from tissue; host or cells: rat brain synaptosomes (P2 fraction)
The assay is described as follows: Inhibition of serotonin (5HT) reuptake in synaptosomes from rat brain. The format is biochemical. The conditions noted are these: test concentration of 10 μM; read-out: 5-HT (inhibition of reuptake of serotonin, % inhibition). The procedure, abridged:
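Compounds screened at 10 μM and reported as percent inhibition of serotonin uptake. Uptake measured in a freshly prepared P2 synaptosomal fraction from rat brain.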

Assay [2] concerns the target T2, human μ opiate receptor (Homo sapiens, UniProt P35372).
T2 construct: purchased PerkinElmer Life Sciences, Zaventem, Belgium RB-HOM; host or cells: CHO-K1 cells (membrane preparation)
The assay is described as follows: Affinity for the human μ opiate receptor ([3H]-naloxone displacement, CHO-K1 receptor membrane preparation, SPA). It is filed as binding. The settings on record: test concentration of 1 μM; read-out: μ (binding on the μ opioid receptor, % inhibition). The method in brief: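 SPA, CHO-K1 hμ membranes; 1 nmol/l [3H]-naloxone; Tris-HCl 50 mmol/l + 0.06% BSA; 90 min RT; NSB with 100 μmol/l naloxone; β-counting. Readout: % inhibition of specific binding at 1 μM test compound.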

T2 sequence (P35372 whole entry): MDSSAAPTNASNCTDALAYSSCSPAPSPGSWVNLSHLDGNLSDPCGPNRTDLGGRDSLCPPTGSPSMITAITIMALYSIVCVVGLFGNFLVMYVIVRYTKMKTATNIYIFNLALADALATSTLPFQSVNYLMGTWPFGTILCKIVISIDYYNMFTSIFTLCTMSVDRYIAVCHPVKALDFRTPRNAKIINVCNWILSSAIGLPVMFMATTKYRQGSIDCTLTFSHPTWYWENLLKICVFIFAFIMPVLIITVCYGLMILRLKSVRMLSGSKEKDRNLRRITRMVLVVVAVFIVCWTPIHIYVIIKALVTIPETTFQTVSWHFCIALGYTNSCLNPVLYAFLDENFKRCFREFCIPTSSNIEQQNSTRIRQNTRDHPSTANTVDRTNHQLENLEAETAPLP
T1 sequence (P31652 whole entry): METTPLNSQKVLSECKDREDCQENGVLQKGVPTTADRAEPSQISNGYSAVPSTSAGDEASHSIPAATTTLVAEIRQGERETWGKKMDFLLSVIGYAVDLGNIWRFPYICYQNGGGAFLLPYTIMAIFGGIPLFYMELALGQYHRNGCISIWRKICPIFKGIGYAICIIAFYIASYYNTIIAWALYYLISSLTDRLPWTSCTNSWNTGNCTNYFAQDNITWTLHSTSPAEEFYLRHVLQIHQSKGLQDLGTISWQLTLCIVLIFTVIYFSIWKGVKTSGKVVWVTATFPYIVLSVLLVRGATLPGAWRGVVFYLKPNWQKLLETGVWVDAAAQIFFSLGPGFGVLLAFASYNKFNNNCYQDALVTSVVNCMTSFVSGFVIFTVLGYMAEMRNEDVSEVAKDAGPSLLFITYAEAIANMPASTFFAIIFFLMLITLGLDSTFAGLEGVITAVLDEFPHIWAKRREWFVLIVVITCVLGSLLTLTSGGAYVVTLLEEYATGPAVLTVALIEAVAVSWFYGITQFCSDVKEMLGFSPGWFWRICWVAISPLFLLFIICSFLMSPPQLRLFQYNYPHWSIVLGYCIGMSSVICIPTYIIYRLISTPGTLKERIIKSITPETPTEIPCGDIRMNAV

In the case of `CN(C)C(c1cccs1)C1CCC(CNC(=O)COCCN(C)S(=O)(=O)c2ccc(OC(F)(F)F)cc2)CC1` (stereo not drawn) [Example 93, N-((4-((dimethylamino)(thiophen-2-yl)methyl)cyclohexyl)methyl)-2-(2-(N-methyl-4-(trifluoromethoxy)phenylsulfonamido)ethoxy)acetamide], in assay [1], the inhibition (usually the drop in the measured response relative to a control, in per cent) at 10 µM was found to be 93%. Besides, the inhibition at 1 µM in assay [2] amounted to 95%.

With `COc1ccc(S(=O)(=O)N2CCCC2COCC(=O)NCCC2CCC(C(c3cccs3)N(C)C)CC2)cc1` (stereo not drawn) [Example 77, N-(2-(4-((dimethylamino)(thiophen-2-yl)methyl)cyclohexyl)ethyl)-2-((1-(4-methoxyphenylsulfonyl)pyrrolidin-2-yl)methoxy)acetamide], in assay [1], the inhibition at 10 µM is 98%. Moreover, the inhibition at 1 µM in assay [2] amounted to 96%.

For the compound `COc1ccc(S(=O)(=O)N2CCCCC2CCOCC(=O)NCC2CCC(C(c3cccs3)N(C)C)CC2)cc1` (stereo not drawn) [Example 90, N-((4-((dimethylamino)(thiophen-2-yl)methyl)cyclohexyl)methyl)-2-(2-(1-(4-methoxyphenylsulfonyl)piperidin-2-yl)ethoxy)acetamide], in assay [1], the inhibition at 10 µM came to 94%. Further, in assay [2], the inhibition at 1 µM was 95%.

Take `COc1ccc(S(=O)(=O)N2CCCCC2CCOCC(=O)NC2CCC(C(c3cccc(F)c3)N(C)C)CC2)cc1` (stereo not drawn) [Example 62, N-(4-((dimethylamino)(3-fluorophenyl)methyl)cyclohexyl)-2-(2-(1-(4-methoxyphenylsulfonyl)piperidin-2-yl)ethoxy)acetamide]: the inhibition at 10 µM in assay [1] is 96%. Besides, the inhibition at 1 µM in assay [2] was found to be 95%.

For `CN(C)C(c1cccc(F)c1)C1CCC(CCNC(=O)COCCN(C)S(=O)(=O)c2c(Cl)cccc2Cl)CC1` (stereo not drawn) [Example 41, 2-(2-(2,6-dichloro-N-methylphenylsulfonamido)ethoxy)-N-(2-(4-((dimethylamino)(3-fluorophenyl)methyl)cyclohexyl)ethyl)acetamide], the inhibition at 10 µM in assay [1] was 79%. In assay [2], the inhibition at 1 µM amounted to 96%.

As to `CN(C)C(c1cccs1)C1CCC(CCNC(=O)COC2CCN(S(=O)(=O)c3ccc(Cl)cc3)C2)CC1` (stereo not drawn) [Example 66, 2-(1-(4-chlorophenylsulfonyl)pyrrolidin-3-yloxy)-N-(2-(4-((dimethylamino)(thiophen-2-yl)methyl)cyclohexyl)ethyl)acetamide], the inhibition at 10 µM in assay [1] stood at 85%. For the same compound, the inhibition at 1 µM in assay [2] stood at 93%.

Consider `COc1cc(C)c(S(=O)(=O)N2CCC(OCC(=O)NCC3CCC(C(c4cccs4)N(C)C)CC3)C2)c(C)c1` (stereo not drawn) [Example 86, N-((4-((dimethylamino)(thiophen-2-yl)methyl)cyclohexyl)methyl)-2-(1-(4-methoxy-2,6-dimethylphenylsulfonyl)pyrrolidin-3-yloxy)acetamide], for which the inhibition at 10 µM in assay [1] was 96%. Further, the inhibition at 1 µM in assay [2] worked out at 95%.

As for `COc1cc(C)c(S(=O)(=O)N2CCN(CCOCC(=O)NC3CCC(C(c4cccc(F)c4)N(C)C)CC3)CC2)c(C)c1C` (stereo not drawn) [Example 76, N-(4-((dimethylamino)(3-fluorophenyl)methyl)cyclohexyl)-2-(2-(4-(4-methoxy-2,3,6-trimethylphenylsulfonyl)piperazin-1-yl)ethoxy)acetamide], in assay [1], the inhibition at 10 µM was 96%. Also, in assay [2], the inhibition at 1 µM worked out at 93%.

`CN(C)C(c1cccs1)C1CCC(CNC(=O)COCCN(C)S(=O)(=O)c2ccc(F)cc2)CC1` (stereo not drawn) [Example 56, N-((4-((dimethylamino)(thiophen-2-yl)methyl)cyclohexyl)methyl)-2-(2-(4-fluoro-N-methylphenylsulfonamido)ethoxy)acetamide]: the inhibition at 10 µM in assay [1] amounted to 100%. In addition, the inhibition at 1 µM in assay [2] turned out to be 95%.

On to `CN(C)C(c1cccc(F)c1)C1CCC(CNC(=O)COCC2CCCCN2S(=O)(=O)c2ccc(Cl)c(Cl)c2)CC1` (stereo not drawn) [Example 87, 2-((1-(3,4-dichlorophenylsulfonyl)piperidin-2-yl)methoxy)-N-((4-((dimethylamino)(3-fluorophenyl)methyl)cyclohexyl)methyl)acetamide], for which the inhibition at 10 µM in assay [1] came to 94%. Further, the inhibition at 1 µM in assay [2] stood at 93%.

Turning to `Cc1ccc(S(=O)(=O)N(C)CCOCC(=O)NCC2CCC(C(c3cccs3)N(C)C)CC2)cc1` (stereo not drawn) [Example 4, N-((4-((dimethylamino)(thiophen-2-yl)methyl)cyclohexyl)methyl)-2-(2-(N,4-dimethylphenylsulfonamido)ethoxy)acetamide], the inhibition at 10 µM in assay [1] is 92%. Besides, the inhibition at 1 µM in assay [2] was 99%.

For `CN(C)C(c1cccs1)C1CCC(NC(=O)COCCN(C)S(=O)(=O)c2ccc(Cl)cc2)CC1` (stereo not drawn) [Example 83, 2-(2-(4-chloro-N-methylphenylsulfonamido)ethoxy)-N-(4-((dimethylamino) (thiophen-2-yl)methyl)cyclohexyl)acetamide], the inhibition at 10 µM in assay [1] came out at 89%. Also, the inhibition at 1 µM in assay [2] was found to be 94%.

On to `CN(C)C(c1cccc(F)c1)C1CCC(CNC(=O)COCCN(C)S(=O)(=O)c2ccc(Cl)cc2Cl)CC1` (stereo not drawn) [Example 70, 2-(2-(2,4-dichloro-N-methylphenylsulfonamido)ethoxy)-N-((4-((dimethylamino)(3-fluorophenyl)methyl)cyclohexyl)methyl)acetamide], for which the inhibition at 10 µM in assay [1] stood at 86%. Moreover, in assay [2], the inhibition at 1 µM came out at 91%.

On to `CN(C)C(c1ccccc1)C1CCC(CNC(=O)COC2CCCCC2N(C)S(=O)(=O)c2ccc(Cl)c(Cl)c2)CC1` (stereo not drawn) [Example 78, 2-(2-(3,4-dichloro-N-methylphenylsulfonamido)cyclohexyloxy)-N-((4-((dimethylamino)(phenyl)methyl)cyclohexyl)methyl)acetamide], for which, in assay [1], the inhibition at 10 µM stood at 86%. For the same compound, in assay [2], the inhibition at 1 µM was determined as 95%.

In the case of `CN(C)C(c1cccs1)C1CCC(NC(=O)COC2CCCN(S(=O)(=O)c3ccccc3)C2)CC1` (stereo not drawn) [Example 42, N-(4-((dimethylamino)(thiophen-2-yl)methyl)cyclohexyl)-2-(1-(phenylsulfonyl)piperidin-3-yloxy)acetamide], in assay [1], the inhibition at 10 µM was found to be 91%. For the same compound, the inhibition at 1 µM in assay [2] worked out at 96%.

For `CN(C)C(c1ccccc1)C1CCC(CNC(=O)COC2CCN(S(=O)(=O)c3ccc(Cl)cc3Cl)C2)CC1` (stereo not drawn) [Example 67, 2-(1-(2,4-dichlorophenylsulfonyl)pyrrolidin-3-yloxy)-N-((4-((dimethylamino)(phenyl)methyl)cyclohexyl)methyl)acetamide], the inhibition at 10 µM in assay [1] came to 87%. For the same compound, the inhibition at 1 µM in assay [2] stood at 96%.

Consider `COc1cc(C)c(S(=O)(=O)N(C)CCOCC(=O)NC2CCC(C(c3ccccc3)N(C)C)CC2)c(C)c1C` (stereo not drawn) [Example 80, N-(4-((dimethylamino) (phenyl)methyl)cyclohexyl)-2-(2-(4-methoxy-N,2,3,6-tetramethylphenylsulfonamido)ethoxy)acetamide], for which, in assay [1], the inhibition at 10 µM worked out at 84%. For the same compound, the inhibition at 1 µM in assay [2] is 93%.

`COc1cc(C)c(S(=O)(=O)N(C)CCOCC(=O)NCCC2CCC(C(c3cccs3)N(C)C)CC2)c(C)c1` (stereo not drawn) [Example 84, N-(2-(4-((dimethylamino)(thiophen-2-yl)methyl)cyclohexyl)ethyl)-2-(2-(4-methoxy-N,2,6-trimethylphenylsulfonamido)ethoxy)acetamide]: in assay [1], the inhibition at 10 µM stood at 92%. The inhibition at 1 µM in assay [2] amounted to 95%.

As to `COc1cc(C)c(S(=O)(=O)N2CCC(CCOCC(=O)NCCC3CCC(C(c4cccs4)N(C)C)CC3)CC2)c(C)c1C` (stereo not drawn) [Example 75, N-(2-(4-((dimethylamino)(thiophen-2-yl)methyl)cyclohexyl)ethyl)-2-(2-(1-(4-methoxy-2,3,6-trimethylphenylsulfonyl)piperidin-4-yl)ethoxy)acetamide], the inhibition at 10 µM in assay [1] came to 96%. Moreover, in assay [2], the inhibition at 1 µM is 92%.

For `Cc1cc(C)c(S(=O)(=O)N(C)CCOCC(=O)NCC2CCC(C(c3cccs3)N(C)C)CC2)c(C)c1` (stereo not drawn) [Example 57, N-((4-((dimethylamino)(thiophen-2-yl)methyl)cyclohexyl)methyl)-2-(2-(N,2,4,6-tetramethylphenylsulfonamido)ethoxy)acetamide], the inhibition at 10 µM in assay [1] turned out to be 101%. Also, the inhibition at 1 µM in assay [2] was 95%.

Regarding `CCN(CCOCC(=O)NC1CCC(C(c2cccs2)N(C)C)CC1)S(=O)(=O)c1c(C)cc(OC)c(C)c1C` (stereo not drawn) [Example 59, N-(4-((dimethylamino)(thiophen-2-yl)methyl)cyclohexyl)-2-(2-(N-ethyl-4-methoxy-2,3,6-trimethylphenylsulfonamido)ethoxy)acetamide], the inhibition at 10 µM in assay [1] was determined as 92%. Moreover, the inhibition at 1 µM in assay [2] was 95%.

For the compound `CN(C)C(c1cccs1)C1CCC(CNC(=O)COCCN(C)S(=O)(=O)c2cccc(C(F)(F)F)c2)CC1` (stereo not drawn) [Example 92, N-((4-((dimethylamino)(thiophen-2-yl)methyl)cyclohexyl)methyl)-2-(2-(N-methyl-3-(trifluoromethyl)phenylsulfonamido)ethoxy)acetamide], the inhibition at 10 µM in assay [1] stood at 86%. Further, the inhibition at 1 µM in assay [2] is 94%.

For the compound `COc1cc(C)c(S(=O)(=O)N(C)CCOCC(=O)NCC2CCC(C(c3cccs3)N(C)C)CC2)c(C)c1` (stereo not drawn) [Example 69, N-((4-((dimethylamino)(thiophen-2-yl)methyl)cyclohexyl)methyl)-2-(2-(4-methoxy-N,2,6-trimethylphenylsulfonamido)ethoxy)acetamide], in assay [1], the inhibition at 10 µM is 86%. In addition, the inhibition at 1 µM in assay [2] turned out to be 96%.

With `CN(C)C(c1ccccc1)C1CCC(CNC(=O)COCCN(C)S(=O)(=O)c2cccc(C(F)(F)F)c2)CC1` (stereo not drawn) [Example 91, N-((4-((dimethylamino)(phenyl)methyl)cyclohexyl)methyl)-2-(2-(N-methyl-3-(trifluoromethyl)phenylsulfonamido)ethoxy)acetamide], the inhibition at 10 µM in assay [1] worked out at 93%. Also, in assay [2], the inhibition at 1 µM was 91%.
